Results published in patent US6638933B2, “Bicyclic imidazo-3-yl-amine derivatives” (Gruenenthal GmbH, priority 1999, dated 2003).

Tested on: phenylquinone-induced writhing in mice
Assay: Analgesia test in the writhing test in mice (phenylquinone-induced writhing)
Assay type: in vivo
Details: male NMRI mice, phenylquinone i.p. ten minutes after substance
Description: Analgesia Test in the Writhing Test in Mice
The analgesic activity was investigated in the phenylquinone-induced writhing in mice (modified according to I. C. Hendershot, J. Forsaith, J. Pharmacol. Exp. Ther. 125, 237-240 (1959)). Male NMRI mice weighing 25-30 g were used. Groups of 10 animals per substance dose received 0.3 ml/mouse of a 0.02% aqueous solution of phenylquinone (phenylbenzoquinone, Sigma, Deisenhofen; solution prepared with the addition of 5% ethanol and storage in a water-bath at 45° C.) administered intraperitoneally ten minutes after intravenous or subcutaneous administration of the test substances. The animals were placed individually in observation cages. The number of pain-induced extension movements (so-called writhing reactions=straightening of the body with stretching out of the hind extremities) 5-20 minutes after administration of the phenylquinone was counted by means of a push-button counter. Animals which receive only physiological saline solution were also run as a control. The substances were tested in the standard dosage of 10 mg/kg intravenously or 21.5 mg/kg subcutaneously. The percentage inhibition (% inhibition) of the writhing reaction by a substance was calculated in accordance with the following equation: [formula]

Row | Compound | % inhibition of the writhing reaction at 10 mg/kg intravenously (writhing counted 5-20 minutes) [%] | also measured
1 | CCOP(=O)(CNc1c(-c2ccccc2)nc2ccccn12)OCC [Example 12, [(2-Phenyl-imidazo[1,2-a]pyridin-3-ylamino)-methyl]-phosphonic acid diethyl ester] | 90 | 
2 | CC(C)(C)Nc1c(C(C)(C)C)nc2ccccn12 [Example 13, tert-Butyl-(2-tert-butyl-imidazo[1,2-a]pyridin-3-yl)-amine] |  | % inhibition of the writhing reaction, intravenously, at 2.15 mg/kg (2.15 mg/kg (stated in cell) in the intravenous column): 86 at 2.15 mg/kg %
3 | c1coc(-c2nc3ccccn3c2NC2CCCCC2)c1 [Example 20, Cyclohexyl-(2-furan-2-yl-imidazo[1,2-a]pyridin-3-yl)-amine] | 43 | 
4 | CC(C)(C)Nc1c(-c2cccnc2)nc2ccccn12 [Example 21, tert-Butyl-(2-pyridin-3-yl-imidazo[1,2-a]pyridin-3-yl)-amine] |  | % inhibition of the writhing reaction at 21.5 mg/kg subcutaneously (21.5 mg/kg subcutaneously, writhing counted 5-20 minutes): 80%
5 | CC(C)(C)Nc1c(-c2ccccn2)nc2ccccn12 [Example 22, tert-Butyl-(2-pyridin-2-yl-imidazo[1,2-a]pyridin-3-yl)-amine] | 53 | 
6 | CC(C)(C)Nc1c(-c2cccs2)nc2ccccn12 [Example 23, tert-Butyl-(2-thiophen-2-yl-imidazo[1,2-a]pyridin-3-yl)-amine] | 62 | 
7 | Cc1nc2ccccn2c1NC1CCCCC1 [Example 24, Cyclohexyl-(2-methyl-imidazo[1,2-a]pyridin-3-yl)-amine] | 56 | 
